≈ marks a conversion by molar mass, not a printed value. Calls of active or inactive are those of the source. The rule behind the calls is not given here.

In the first assay the test system is Mycobacterium tuberculosis. In words: Antimycobacterial activity against Mycobacterium tuberculosis H37Rv ATCC 27294 in GAS medium after 1 week by microplate alamar blue assay. In kind it is functional. The following applies: H37Rv ATCC 27294, 168 h.
`O=C(OCc1ccccc1)[C@@H]1COC(c2ccc(OCc3ccccc3)c(F)c2)=N1` returned an MIC of 0.77 µM (≈ 0.312 µg/mL).
On the same count and under the same terms, under `COc1ccc(-c2nc(C(=O)OCc3ccccc3)co2)cc1Cl` stands 2.35 µM (≈ 0.808 µg/mL); under `COc1ccc(-c2nc(C(=O)OCc3ccccc3)co2)cc1F`, 5.55 µM (≈ 1.82 µg/mL).
Still for that read-out and setting: with `O=C(OCc1ccccc1)c1coc(-c2cccc(F)c2)n1` the figure was 0.91 µM (≈ 0.271 µg/mL).
Still for that read-out and setting: with `C[C@@H]1OC(c2ccc(F)cc2[N+](=O)[O-])=N[C@@H]1C(=O)OCc1ccccc1` the figure was 12.5 µM (≈ 4.48 µg/mL); with `Cc1oc(-c2ccc(F)cc2[N+](=O)[O-])nc1C(=O)OCc1ccccc1`, 15 µM (≈ 5.34 µg/mL); with `O=C(OCc1ccccc1)c1coc(-c2ccc([N+](=O)[O-])c(F)c2)n1`, 35.4 µM (≈ 12.1 µg/mL).
On to `O=C(OCc1ccccc1)c1coc(-c2ccc([N+](=O)[O-])cc2F)n1`, for which the MIC was 0.7 µM (≈ 0.24 µg/mL).
Same read-out and setting: with `O=C(OCc1ccccc1)[C@@H]1COC(c2ccc([N+](=O)[O-])cc2)=N1` the figure was 30.6 µM (≈ 9.99 µg/mL); with `Cc1oc(-c2ccccc2OCc2ccccc2)nc1C(=O)OCc1ccccc1`, 28.3 µM (≈ 11.3 µg/mL).
`O=C(OCc1ccccc1)c1coc(-c2ccc(Br)nc2)n1` returned an MIC of 2.54 µM (≈ 0.912 µg/mL).

The next assay deals with Mycobacterium tuberculosis. In words: Antimycobacterial activity against Mycobacterium tuberculosis H37Rv ATCC 27294 incubated 10 days under anaerobic condition measured after 24 hrs recovery in air by luciferase based low oxygen recovery assay. Type of assay: functional.
Details: not given
Compound `Cc1oc(-c2ccc(F)cc2[N+](=O)[O-])nc1C(=O)OCc1ccccc1` came in with an MIC of more than 128 µM.
The same measure, in the same setting: with `O=C(OCc1ccccc1)c1coc(-c2ccc([N+](=O)[O-])cc2F)n1` the figure was 11.6 µM (≈ 3.97 µg/mL); with `O=C(OCc1ccccc1)c1coc(-c2ccc(Br)nc2)n1`, 25.1 µM (≈ 9.02 µg/mL).

A further assay has as its system Mycobacterium tuberculosis. As to the kind of experiment: Antimycobacterial activity against Mycobacterium tuberculosis H37Rv ATCC 27294 in GAST medium after 1 week by microplate alamar blue assay. In kind it is functional. To be noted: H37Rv ATCC 27294, 168 h.
`O=C(OCc1ccccc1)[C@@H]1COC(c2ccc(OCc3ccccc3)c(F)c2)=N1` had an MIC of 1.42 µM (≈ 0.576 µg/mL).
Same read-out and setting: with `COc1ccc(-c2nc(C(=O)OCc3ccccc3)co2)cc1Cl` the figure was 5.33 µM (≈ 1.83 µg/mL); with `COc1ccc(-c2nc(C(=O)OCc3ccccc3)co2)cc1F`, 6.99 µM (≈ 2.29 µg/mL).
The same measure, in the same setting: with `O=C(OCc1ccccc1)c1coc(-c2cccc(F)c2)n1` the figure was 1.42 µM (≈ 0.422 µg/mL); with `C[C@@H]1OC(c2ccc(F)cc2[N+](=O)[O-])=N[C@@H]1C(=O)OCc1ccccc1`, 4.11 µM (≈ 1.47 µg/mL).
With `Cc1oc(-c2ccc(F)cc2[N+](=O)[O-])nc1C(=O)OCc1ccccc1`, 4.62 µM (≈ 1.65 µg/mL) was the least that counted as inhibitory (MIC).
Compound `O=C(OCc1ccccc1)c1coc(-c2ccc([N+](=O)[O-])c(F)c2)n1` had an MIC of 2.66 µM (≈ 0.91 µg/mL).
The same measure, in the same setting: with `O=C(OCc1ccccc1)c1coc(-c2ccc([N+](=O)[O-])cc2F)n1` the figure was 1.65 µM (≈ 0.565 µg/mL).
On the same count and under the same terms, under `O=C(OCc1ccccc1)[C@@H]1COC(c2ccc([N+](=O)[O-])cc2)=N1` stands 7.59 µM (≈ 2.48 µg/mL); under `Cc1oc(-c2ccccc2OCc2ccccc2)nc1C(=O)OCc1ccccc1`, more than 128 µM; under `O=C(OCc1ccccc1)c1coc(-c2ccc(Br)nc2)n1`, 1.84 µM (≈ 0.661 µg/mL).

The subject of a further assay is Vero. In words: Cytotoxicity against african green monkey Vero cells by colorimetric assay. In kind it is cell-based. To be noted: Chlorocebus sabaeus.
`O=C(OCc1ccccc1)[C@@H]1COC(c2ccc(OCc3ccccc3)c(F)c2)=N1` came in with a 50% inhibitory concentration (IC50) of more than 128 µM.
Same read-out and setting: under `COc1ccc(-c2nc(C(=O)OCc3ccccc3)co2)cc1Cl` stands more than 128 µM.
Same read-out and setting: under `COc1ccc(-c2nc(C(=O)OCc3ccccc3)co2)cc1F` stands more than 128 µM; under `O=C(OCc1ccccc1)c1coc(-c2cccc(F)c2)n1`, more than 128 µM.
As for `C[C@@H]1OC(c2ccc(F)cc2[N+](=O)[O-])=N[C@@H]1C(=O)OCc1ccccc1`, the IC50 came to 38.1 µM.
Compound `Cc1oc(-c2ccc(F)cc2[N+](=O)[O-])nc1C(=O)OCc1ccccc1` displayed an IC50 of more than 128 µM.
`O=C(OCc1ccccc1)c1coc(-c2ccc([N+](=O)[O-])c(F)c2)n1`: the half-inhibitory concentration (IC50) is more than 128 µM.
On the same count and under the same terms, with `O=C(OCc1ccccc1)c1coc(-c2ccc([N+](=O)[O-])cc2F)n1` the figure was more than 128 µM.
Still for that read-out and setting: with `O=C(OCc1ccccc1)[C@@H]1COC(c2ccc([N+](=O)[O-])cc2)=N1` the figure was more than 128 µM; with `Cc1oc(-c2ccccc2OCc2ccccc2)nc1C(=O)OCc1ccccc1`, 110 µM; with `O=C(OCc1ccccc1)c1coc(-c2ccc(Br)nc2)n1`, more than 128 µM.

The next assay concerns Mycobacterium tuberculosis. As to the kind of experiment: Antimycobacterial activity against Mycobacterium tuberculosis Erdman infected in BALB/c mouse assessed as reduction of bacterial load at 200 mg/kg, po qd for 5 days per week administered 60 days after infection measured after 85 days post infection. In kind it is functional, organism-based.
Details: not given
On the set-up: dose 200 mg/kg.
Turning to `O=C(OCc1ccccc1)[C@@H]1COC(c2ccc(OCc3ccccc3)c(F)c2)=N1`, the result was inactive.
The same measure, in the same setting: under `COc1ccc(-c2nc(C(=O)OCc3ccccc3)co2)cc1Cl` stands “inactive”; under `COc1ccc(-c2nc(C(=O)OCc3ccccc3)co2)cc1F`, “inactive”; under `O=C(OCc1ccccc1)c1coc(-c2cccc(F)c2)n1`, “inactive”.
Regarding `C[C@@H]1OC(c2ccc(F)cc2[N+](=O)[O-])=N[C@@H]1C(=O)OCc1ccccc1`, the outcome was inactive.
For the compound `Cc1oc(-c2ccc(F)cc2[N+](=O)[O-])nc1C(=O)OCc1ccccc1`, the result was inactive.
In the case of `O=C(OCc1ccccc1)c1coc(-c2ccc([N+](=O)[O-])c(F)c2)n1`, the outcome was inactive.
Still for that read-out and setting: under `O=C(OCc1ccccc1)c1coc(-c2ccc([N+](=O)[O-])cc2F)n1` stands “inactive”; under `O=C(OCc1ccccc1)[C@@H]1COC(c2ccc([N+](=O)[O-])cc2)=N1`, “inactive”.
On to `Cc1oc(-c2ccccc2OCc2ccccc2)nc1C(=O)OCc1ccccc1`, for which the outcome was inactive.
As for `O=C(OCc1ccccc1)c1coc(-c2ccc(Br)nc2)n1`, the result was inactive.

The record behind these values is ChEMBL document CHEMBL1157845, “Structure-activity relationship of new anti-tuberculosis agents derived from oxazoline and oxazole benzyl esters” (Eur J Med Chem, 2010).
